According to patent publication US5215991A, “Combination of selective alpha-adrenergic agonists and Na^+ /H^+ e x” (priority 1990, dated 1993):

Columns and labels:
[1] = tested on: New Zealand White rabbits with normotensive IOP; test: Intraocular pressure (IOP) after topical ocular administration in normotensive New Zealand White rabbits; type: in vivo, New Zealand White rabbit; conditions: for ΔIOP at 1 Hr., (X + p) / ΔIOP at 3 Hr., (X + p): Na+/H+ inhibitor X (1%) followed 30 min later by p-amino clonidine (0.1%), mean change from pre-drug level; for ΔIOP at 1 Hr., (X + p): 1 hour post p-amino clonidine; for ΔIOP at 3 Hr., (X + p): 3 hours post p-amino clonidine; for IOP change, amiloride analog administered alone: amiloride analogs alone, Example 2; for ΔIOP at 1 Hr., (X + p) - p / ΔIOP at 3 Hr., (X + p) - p: difference between X (1%) + p-amino clonidine (0.1%) and p-amino clonidine alone; for ocular hypotensive response to the alpha2 agonist after pretreatment with the Na+/H+ exchange inhibitor: pretreatment with Na+/H+ exchange inhibitor (1%) 30 min before the alpha2 agonist, FIGS. 2-4
Protocol: Ocular co-administration of an alpha2 agonist and a Na^+ /H^+ exchange inhibitor to effect lowering of IOP was experimentally tested in the New Zealand White rabbit.
The effect of co-administrating of alpha2 agonists and a Na^+ /H^+ exchange inhibitor on lowering IOP was testing in New Zealand White rabbits with normotensive IOP and weighing 3-4 kg. Topical anesthesia was produced by instillation of about 5 μl of […].
Separate solution of various alpha2 agonists and a Na^+ /H^+ exchange inhibitor were prepared by dissolving the specified quantity of agonists or the Na^+ /H^+ exchange inhibitor in distilled water to obtain the concentrations shown below in Table III. The pH of the final solutions ranged from about 4 to about 7.5 as indicated by the characteristics of the individual drugs.
The animals were divided into 2 groups. One group was treated with the Na^+ /H^+ exchange inhibitor followed by an alpha2 agonist and the other group received vehicle followed by the alpha2 agonist. Intraocular pressure (IOP) was measured in both eyes for each animal using a calibrated DIGILAB® pneumatonograph. […] Thirty minutes after application of the Na^+ /H^+ exchange inhibitor or vehicle, IOP was again measured for the eye. Immediately following these measurements, 50 μl of one of the alpha2 agonists solution given in Table III was administered to the test eye in the same manner described above. Thereafter, IOP measurements for each eye of each animal were made at 30 minutes after administration of the alpha2 agonist, then hourly for 6 hours. In separate experiments, the IOP response to the Na^+ /H^+ exchange inhibitor alone was determined.
In another series of experiments, carried out in substantially the same manner as set forth in Example 1, various amiloride analogs with varying potencies at inhibiting Na^+ /H^+ exchange were co-administered with an alpha2 agonist, p-amino clonidine, and IOP determine. […] The data are expressed as mean changes from pre-drug levels.

Na^+ /H^+ exchange = conditions: inhibition of Na+/H+ exchange in human neutrophils; data taken from Simchowitz and Cragoe, Mol. Pharmacol. 30, 112-120, 1986; cited from earlier work

Row | Compound | ΔIOP at 1 Hr., (X + p) [1] | ΔIOP at 3 Hr., (X + p) [1] | IOP change, amiloride analog administered alone [1] | ΔIOP at 1 Hr., (X + p) - p [1] | ΔIOP at 3 Hr., (X + p) - p [1] | Ki (Na^+ /H^+ exchange) [µM] | IOP response to the Na+/H+ exchange inhibitor alone ([1]; three concentrations (0.1, 0.3, 1%), topical, FIG. 1) | ocular hypotensive response to the alpha2 agonist after pretreatment with the Na+/H+ exchange inhibitor [1]
1 | CN(C)c1nc(N)c(C(=O)N=C(N)N)nc1Cl [5-(N,N-dimethyl) amiloride] | +1.8 mmHg | +0.7 mmHg | substantially inactive | -1.2 mmHg | -1.9 mmHg | 6.9 |  | 
2 | NC(N)=NC(=O)c1nc(Cl)c(N2CCCCCC2)nc1N [5-(N,N-hexamethylene) amiloride] | -8.6 mmHg | -7.5 mmHg | substantially inactive | -11.6 mmHg | -10.1 mmHg | 0.16 |  | 
3 | CCN(c1nc(N)c(C(=O)N=C(N)N)nc1Cl)C(C)C [5-(N-ethyl-N-isopropyl) amiloride] | -7.2 mmHg | -5.7 mmHg | substantially inactive | -10.2 mmHg | -7.4 mmHg | 0.36 | did not significantly alter IOP | 
4 | Brc1c(NC2=NCCN2)ccc2nccnc12 [5-bromo-6-(2-imidazolidine-2-ylamino)quinoxaline] |  |  |  |  |  |  |  | augmented
5 | N=C(N)NC(=O)c1nc(Cl)c(N)nc1N [Amiloride] | +3.0 mmHg | +2.6 mmHg |  | +0.2 mmHg | +0.6 mmHg | 83.8 |  | 
6 | Clc1cccc(Cl)c1N=C1NCCN1 [clonidine] |  |  |  |  |  |  |  | augmented
7 | Nc1cc(Cl)c(NC2=NCCN2)c(Cl)c1 [p-amino clonidine, p-aminoclonidine] |  |  |  |  |  |  |  | augmented
